pKd: −log10 of the molar value. Where two headings read alike, the source gives them in different places.
Assays:
AT DNA = experiment: Fluorescence titration of GCN4 beacon with AT DNA (negative control); format: binding; details: 100 nM beacon
Protocol: (§1) Samples contain 100 nM GCN4 225/244 beacon and indicated concentration of DNA.
(§2) The AP-1 DNA and AT DNA were used for GCN-4 beacons binding assays as the target and control DNAs, respectively. Rex aptamer and TAR RNA were used for Rex beacon binding assays as the target and control RNAs, respectively. For detailed structures of Rex aptamer and TAR RNA, refer to PDB 1EXY and 1MNB, respectively.

AP-1 DNA [1] = experiment: Absorbance spectra of GCN4 beacons with AP-1 DNA; format: binding; details: 1 μM beacon, 10 μM DNA
Protocol: FIGS. 2A and 2B show line graphs of absorbance versus wavelength (nm). […] All samples contain 1 μM beacon, and concentration for DNA is 10 μM.
as §2
As shown by the shifted absorbance peaks (i.e. shift of highest peak) in FIGS. 2A and 2B, both GCN4 225/237 and GCN4 225/244 beacons allow formation of TAMRA H-dimer. […] The GCN4 225/244 beacon was selected for further characterization.

AP-1 DNA [2] = experiment: Fluorescence titration of GCN4 beacon with AP-1 DNA; format: binding; details: titration of 100 nM beacon with increasing concentration of AP-1 DNA
Protocol: as §1, §2

FosLZ = target: T1, FosLZ (Homo sapiens, UniProt P01100); experiment: Non-specific fluorescence enhancement (crosstalk) assay, FIG. 14, with FosLZ; format: binding; details: 100 nM beacon, 10 μM FosLZ, 580 nm, excitation 520 nm
T1 construct: TDTLQAE TDQLEDE KSALQTE IANLLKE KEKLEFI LA; made in house; host or cells: E. coli BL21(DE3)
Protocol: (§3) FIGS. 14A and 14B show bar graphs of relative fluorescence intensity versus different peptide beacons. Non-specific fluorescence enhancement of peptide beacons by various unrelated coiled coil-forming peptides is shown. All reagents other than the beacons are loaded to 10 μM. The data represent relative fluorescence intensity at 580 nm (bandwidth 20 nm) collected by excitation at 520 nm (band width 15 nm). (FIG. 14A) All samples contain 100 nM K3-b1b3 beacon. Columns A, B, C, D, E are beacon only, beacon with unlabeled JunLZ-Lb1b4, beacon with unlabeled FosLZ, beacon with unlabeled GCN4 244, and beacon with E3 peptide, respectively. […] Column A, B, C, D, E are beacon only, beacon with unlabeled K3-b1b3 peptide, beacon with E3 peptide, beacon with unlabeled GCN4 244, beacon with FosLZ.
(§4) So a concern about the binding specificity naturally arises. […] It is not a surprising result, since both peptides have leucine residues at all d positions, and that multiple electrostatic interactions exist between […].

E3 peptide [3] = experiment: Non-specific fluorescence enhancement (crosstalk) assay, FIG. 14, with E3 peptide; format: binding; details: 100 nM beacon, 10 μM E3 peptide, 580 nm, excitation 520 nm
Protocol: as §3, §4

MBP-E3 = MBP-E3 (Escherichia coli, UniProt P0AEX9); details: data not shown
Description: (§5) The application of using the K3-b1b3 beacon for detection of E3-fusion proteins has also been tested. For this purpose, a recombinant maltose binding protein (MBP) with E3 fused at its C-terminal end was created.

unlabeled GCN4 244 = target: T2, unlabeled GCN4 244 (Saccharomyces cerevisiae, UniProt P03069, A244C/S225C); experiment: Non-specific fluorescence enhancement (crosstalk) assay, FIG. 14, with unlabeled GCN4 244; format: binding, yeast; details: 100 nM beacon, 10 μM unlabeled GCN4 244, 580 nm, excitation 520 nm
T2 construct: […]; MKQLEDK; GGSGG linker (internal); made in house; host or cells: E. coli BL21(DE3)
Protocol: as §3, §4

wild-type MBP = wild-type MBP (Escherichia coli, UniProt P0AEX9); details: data not shown
Description: (§6) All spectra data were obtained with Safire II microplate reader (TECAN). Data was acquired right after mixing the beacon with its target.
as §5

unlabeled JunLZ-Lb1b4 = experiment: Non-specific fluorescence enhancement (crosstalk) assay, FIG. 14A, with unlabeled JunLZ-Lb1b4; format: binding; details: 100 nM beacon, 10 μM unlabeled JunLZ-Lb1b4, 580 nm, excitation 520 nm
Protocol: as §3, §4

[4] = tested on: unrelated coiled coil-forming peptides; experiment: Crosstalk of beacon with unrelated peptides, overall; format: binding; details: FIG. 14
Protocol: as §3, §4

E3 peptide [5] = experiment: Fluorescence titration of K3-b1b3 beacon with E3 peptide; format: binding
Protocol: as §6
To further characterize the K3-b1b3 beacon, titration of lower concentration (10 nM) of K3-b1b3 beacon has also been performed.

E3 peptide [6] = details: cited from earlier work
E3 peptide [7] = experiment: CD spectra analysis of binding between unlabeled K3-b1b3 and E3 peptides; details: curve fitting

Substance: GCN4 225/244 beacon: GCN4 bZip S225C/A244C (SEQ ID NO: 27), fused to C-terminal end of MBP, TAMRA labelled
- effect of AT DNA on fluorescence (AT DNA): no effects
- change of absorbance spectrum in the presence of AP-1 DNA (AP-1 DNA [1]): significant alteration of its absorbance spectrum
- maximum fluorescence increase (AP-1 DNA [2]): 4.3 fold

Substance: K ICALKAK IAALKAK ICALKAGY (SEQ ID NO: 12) with two 6-TAMRA fluorophores attached at the cysteines via maleimide [K3-b1b3 beacon]
- fluorescence enhancement compared with the beacon only sample (FosLZ): 1.6 fold
- fluorescence enhancement compared with the beacon only sample (E3 peptide [3]): 7.0 fold
- binding by gel-shift assay (MBP-E3): Specific binding
- fluorescence enhancement compared with the beacon only sample (unlabeled GCN4 244): 1.2 fold
- effect on fluorescence emission of the beacon (wild-type MBP): does not have effects
- fluorescence enhancement compared with the beacon only sample (unlabeled JunLZ-Lb1b4): 1.5 fold
- non-specific fluorescence enhancement by unrelated peptides [4]: no significant non-specific fluorescence enhancement
- pKd (E3 peptide [5]; curve fitting, 1 μM beacon titration, read-out: Kd value for binding between K3-b1b3 beacon and E3 peptide): 6.12
- pKd (E3 peptide [5]; curve fitting, titration of 10 nM beacon, read-out: Kd value for binding between K3-b1b3 beacon and E3 peptide): 6.13
- pKd (E3 peptide [5]; read-out: Kd, result of 1 μM beacon titration (restated), 1 μM beacon titration): 6.12
- maximum fluorescence enhancement (E3 peptide [5]; titration of 1 μM K3-b1b3 beacon with E3 peptide): about 12 fold

Substance: original K3 peptide K IAALKEK IAALKEK IAALKE (SEQ ID NO:29)
- pKd (E3 peptide [6]; literature value restated in Example 4, read-out: Kd value for binding between the K3 and E3 peptides): 7.15
- pKd (E3 peptide [6]; reported in the literature, read-out: Kd value for binding between the original K3 and E3 peptides): 7.15

Substance: unlabeled modified K3 peptide K ICALKAK IAALKAK ICALKA GY (SEQ ID NO:12) [K3-b1b3]
- pKd (E3 peptide [7]): 7.35
